{"source": "paper PMC8206089", "about": "“Split NanoLuc technology allows quantitation of interactions between PII protein and its receptors with unprecedented sensitivity and reveals transient interactions” (Scientific Reports, 2021)", "key": {"[1]": {"molecular_target": "T1, NAGK-SmBiT in complex with PII-LgBiT (ligand on NAGK) (Synechocystis sp. PCC 6803, UniProt P73326)", "T1 construct": "gene argB; hexameric NAGK with N-terminal His6, C-terminal 16-aa linker and SmBiT; PII trimer with C-terminal Strep-tag and LgBiT; both from E. coli Lemo21; with Nitrogen regulatory protein P-II", "T1 sequence (P73326 whole entry)": "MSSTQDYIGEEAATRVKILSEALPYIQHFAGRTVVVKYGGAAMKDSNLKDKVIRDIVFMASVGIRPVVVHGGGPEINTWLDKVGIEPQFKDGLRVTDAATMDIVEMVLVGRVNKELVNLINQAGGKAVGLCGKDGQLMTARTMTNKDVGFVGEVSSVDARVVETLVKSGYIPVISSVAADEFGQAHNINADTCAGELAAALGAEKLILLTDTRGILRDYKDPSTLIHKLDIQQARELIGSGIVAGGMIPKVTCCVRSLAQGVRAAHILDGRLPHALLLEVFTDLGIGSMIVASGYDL", "T1 sequence (Q55247 whole entry partner)": "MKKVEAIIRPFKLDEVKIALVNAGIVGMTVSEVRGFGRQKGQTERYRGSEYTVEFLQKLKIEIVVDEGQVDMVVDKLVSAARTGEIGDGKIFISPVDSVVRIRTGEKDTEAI", "assay": "NanoBiT luminescence, Arg titration of PII-NAGK complex", "format": "binding", "conditions": "2 mM ATP or 1 mM ATP/1 mM ADP; allosteric; pH 7.6, 2 mM MgCl2, 30 °C"}, "[2]": {"molecular_target": "T1, NAGK-SmBiT in complex with PII-LgBiT (ligand on NAGK)", "assay": "NanoBiT luminescence, stimulation of PII-NAGK complex formation", "format": "binding", "conditions": "0-50 mM NAG, 2 mM ATP; 10 pM PII-LgBiT, 5 nM NAGK-SmBiT; pH 7.6, 2 mM MgCl2, 30 °C"}}}
{"smiles": "N=C(N)NCCC[C@H](N)C(=O)O", "note": "[Arg]", "values": [{"measurement": "NanoBiT luminescence, Arg titration of PII-NAGK complex", "setting": "[1]", "result": "arginine was titrated to PII-LgBiT-NAGK-SmBiT complexes and luminescence was recorded"}]}
{"smiles": "CC(=O)N[C@@H](CCC(=O)O)C(=O)O", "note": "[NAG]", "values": [{"measurement": "NanoBiT luminescence, stimulation of PII-NAGK complex formation", "setting": "[2]", "result": "increasing NAG concentrations caused a dramatic increase in PII-NAGK interaction"}]}
